{
  "source": "patent US8765960B2",
  "about": "“6-((S)-1- {1-[5-(2-hydroxy-ethoxy)-pyridin-2-yl]-1H-pyrazol-3-YL}-ethyl)-3H-1,3-benzothiazol-2-one as a tarp-gamma 8 dependent AMPA receptor antagonist” (Eli Lilly and Company, priority 2012, dated 2014)",
  "key": {"[1]": {"biological_target": "T1, TARP γ8 dependent GluA1 flop receptors (Homo sapiens, UniProt P42261+Q8WXS5)", "T1 construct": "expressed in transfected cells; host or cells: CHO-S (Invitrogen), transient transfection", "T1 sequence (P42261 19-906)": "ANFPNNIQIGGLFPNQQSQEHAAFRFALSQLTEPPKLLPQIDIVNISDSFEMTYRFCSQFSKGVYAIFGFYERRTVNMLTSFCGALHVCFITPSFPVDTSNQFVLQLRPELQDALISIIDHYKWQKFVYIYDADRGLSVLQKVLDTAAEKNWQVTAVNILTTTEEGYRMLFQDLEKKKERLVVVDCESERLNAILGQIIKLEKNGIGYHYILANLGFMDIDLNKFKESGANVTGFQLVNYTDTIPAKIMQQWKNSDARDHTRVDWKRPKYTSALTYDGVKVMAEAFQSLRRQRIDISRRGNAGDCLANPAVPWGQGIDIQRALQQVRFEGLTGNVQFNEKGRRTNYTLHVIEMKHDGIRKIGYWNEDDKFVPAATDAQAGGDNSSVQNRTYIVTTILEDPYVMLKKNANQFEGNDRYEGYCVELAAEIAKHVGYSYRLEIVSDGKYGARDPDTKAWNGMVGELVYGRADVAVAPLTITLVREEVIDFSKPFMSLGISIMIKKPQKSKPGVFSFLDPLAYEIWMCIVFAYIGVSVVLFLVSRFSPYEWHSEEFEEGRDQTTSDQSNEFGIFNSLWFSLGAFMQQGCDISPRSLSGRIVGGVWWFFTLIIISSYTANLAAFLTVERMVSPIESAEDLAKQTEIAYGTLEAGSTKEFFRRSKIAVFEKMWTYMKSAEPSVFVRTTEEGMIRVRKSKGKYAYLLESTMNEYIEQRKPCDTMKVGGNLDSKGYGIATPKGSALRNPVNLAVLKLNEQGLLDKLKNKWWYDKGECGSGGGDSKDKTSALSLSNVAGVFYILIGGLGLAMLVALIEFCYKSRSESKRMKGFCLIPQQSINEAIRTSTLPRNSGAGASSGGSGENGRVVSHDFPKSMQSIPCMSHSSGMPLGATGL", "T1 sequence (Q8WXS5 whole entry)": "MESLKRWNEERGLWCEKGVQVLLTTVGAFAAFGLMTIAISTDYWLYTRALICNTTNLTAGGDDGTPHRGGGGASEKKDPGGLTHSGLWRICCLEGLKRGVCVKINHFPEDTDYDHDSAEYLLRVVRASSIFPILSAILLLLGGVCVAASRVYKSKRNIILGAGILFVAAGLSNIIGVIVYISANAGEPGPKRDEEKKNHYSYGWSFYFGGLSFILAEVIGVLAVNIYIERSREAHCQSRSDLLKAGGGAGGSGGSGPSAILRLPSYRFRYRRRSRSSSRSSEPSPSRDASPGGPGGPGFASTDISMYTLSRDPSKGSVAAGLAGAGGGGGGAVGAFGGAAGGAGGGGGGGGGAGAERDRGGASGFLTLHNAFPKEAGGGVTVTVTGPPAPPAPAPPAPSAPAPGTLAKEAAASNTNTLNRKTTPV", "assay": "FLIPR antagonist functional assay, GluA1 flop co-expressed with TARP γ-8 in CHO-S cells", "format": "cell-based", "settings": "glutamate 45 μM plus CTZ 20 μM, average±SEM, n=9", "description": "(§1) FLIPR Antagonist Functional Assay\n(§2) Briefly, CHO-S (Invitrogen) cells are grown in suspension in 50/50 custom media to a density of 1×10^7 cells/ml. […]"}, "[2]": {"biological_target": "T2, AMPA GluA1 flip isoform devoid of TARP (Homo sapiens, UniProt P42261)", "T2 construct": "expressed in transfected cells; host or cells: CHO-S (Invitrogen), transient transfection", "T2 sequence (P42261 19-906 isoform P42261-2 limits assumed)": "as the sequence (P42261 19-906) above, with N740G, N750S, L754V, N760S, G772K, G773D, G774S, D775G counted along it", "assay": "FLIPR antagonist functional assay, GluA1 flip expressed in CHO-S cells without TARP", "format": "cell-based", "settings": "no TARP, did not inhibit, assay limit 9260 nM", "description": "as §1, §2"}, "[3]": {"biological_target": "T3, TARP γ2 dependent GluA1 flop receptors (Homo sapiens, UniProt P42261+Q9Y698)", "T3 construct": "expressed in transfected cells; host or cells: CHO-S (Invitrogen), transient transfection", "T3 sequence (P42261 19-906)": "as the sequence (P42261 19-906) above", "T3 sequence (Q9Y698 whole entry)": "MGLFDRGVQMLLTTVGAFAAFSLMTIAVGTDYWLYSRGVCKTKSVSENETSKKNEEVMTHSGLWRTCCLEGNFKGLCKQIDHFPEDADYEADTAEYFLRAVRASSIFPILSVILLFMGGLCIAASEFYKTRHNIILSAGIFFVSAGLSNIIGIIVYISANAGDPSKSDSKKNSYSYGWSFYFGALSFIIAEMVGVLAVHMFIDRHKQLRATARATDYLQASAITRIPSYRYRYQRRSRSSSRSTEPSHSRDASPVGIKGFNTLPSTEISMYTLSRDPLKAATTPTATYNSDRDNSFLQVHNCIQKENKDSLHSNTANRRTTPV", "assay": "FLIPR antagonist functional assay, GluA1 flop co-expressed with TARP γ-2 in CHO-S cells", "format": "cell-based", "settings": "did not inhibit, assay limit 9260 nM", "description": "as §1, §2"}, "[4]": {"system": "PTZ induced seizures", "assay": "Rat pentylenetetrazole (PTZ)-induced seizure model", "format": "in vivo", "excerpt": "Rat Pentylenetetrazole (PTZ)-Induced Seizure Model:\nMale Sprague Dawley rats (from Harlan Sprague Dawley. Indianapolis, Ind.), weighing 90-110 grams at time of test, are housed 5 per cage with ad libitum food and water in a large colony room with a standard light cycle (lights on 6 am, lights off 6 pm). Animals are maintained in the colony room for at least 3 days before testing Animals are moved to a quiet room 1 hr. prior to the start of the test. Animals are used only once.\nAnimals are removed and dosed with test compound or vehicle (5% DMSO, 10% acacia and 0.05% Dow Corning® 1510-US antifoam), p.o., 10 mL/Kg, and returned to their home cage. Twenty five min. after dosing, animals are placed onto a screen and the screen is inverted 180 degrees to test for motor impairment. The animals are scored 60 sec. after inversion as follows: 0 if the animal climbs over the screen; 1 if the animal is hanging onto the bottom of the screen; 2 if the animal has fallen off the screen. After completing the screen test, animals are dosed S.C. with 35 mg/kg PTZ in saline in a volume of 1 ml/kg. The animals are then placed in an observation cage and observed for 30 min. post PTZ. […] Lethality during the observation period is also recorded. Animals are scored according to the presence of a specific seizure type at any time during the observation period."}, "[5]": {"system": "motor impairment", "assay": "Inverted screen test for motor impairment (within rat PTZ model)", "format": "in vivo", "settings": "rats, 1-10 mg/Kg p.o., 25 min after dosing", "description": "Animals are removed and dosed with test compound or vehicle (5% DMSO, 10% acacia and 0.05% Dow Corning® 1510-US antifoam), p.o., 10 mL/Kg, and returned to their home cage. Twenty five min. after dosing, animals are placed onto a screen and the screen is inverted 180 degrees to test for motor impairment. The animals are scored 60 sec. after inversion as follows: 0 if the animal climbs over the screen; 1 if the animal is hanging onto the bottom of the screen; 2 if the animal has fallen off the screen. After completing the screen test, animals are dosed S.C. with 35 mg/kg PTZ in saline in a volume of 1 ml/kg. The animals are then placed in an observation cage and observed for 30 min. post PTZ. […] Tonic seizure is defined as loss of righting with tonic hindlimb extension. Lethality during the observation period is also recorded. Animals are scored according to the presence of a specific seizure type at any time during the observation period."}, "[6]": {"system": "formalin induced pain", "assay": "Manual formalin induced pain model", "format": "in vivo, mice", "settings": "for % reduction in total time licking: mice", "description": "Manual Formalin Induced Pain Model\nThe manual formalin induced pain model is well known for screening compounds for analgesic properties (Mogil J. S. et al., Heritability of nociception I: Responses of 11 inbred mouse strains on 12 measures of nociception. Pain 80 (1999) 67-82). The assay is performed in Plexiglas® boxes approx. 10 cm×10 cm×10 cm in size. A minor placed at the back of the cage allows the unhindered observation of the formalin injected paw. Non-fasted male mice (Harlan (HSD) CD1-Icr) are placed individually in the cubicles at least 60 min. prior to the experiment. All testing is conducted between 08:00 and 16:00 hr. and the testing room temperature is maintained at 21-23° C. Multiple doses of test compound (3, 10 and 30 mg/kg), vehicle (5% DMSO in 10% Acacia, 0.05% antifoam), and a positive control (tramadol 80 mg/kg in 1% HEC, 0.25% Tween 80, 0.05% antifoam) are peripherally administered (p.o.) at varying times before the formalin challenge. Formalin (20 μL of a 5% solution in 0.9% saline) is injected subcutaneously into the plantar surface of the left hind paw with a 27 gauge needle. Observation starts immediately after the formalin injection. Formalin induced pain is quantified by recording the number of seconds each licking event lasts in 5 min. intervals. The pain scoring is measured for 60 min. after the formalin injection. Two phases of pain behavior are observed as previously described (Wheeler-Aceto, H., Porreca, F. and Cowan, A., The rat paw formalin test: comparison of noxious agents, Pain 40 (1990) 229-238.). The early phase starts immediately after the formalin injection and lasts approximately 5 min., followed by the late phase that starts between minutes 10-15 with a maximum response typically observed around 25-40 min after the formalin injection. After the 60 min observation period, animals are sacrificed with CO2 followed by cervical dislocation. Of the different scoring parameters reported for the formalin test, the total time spent licking and biting the injected paw is considered to be most relevant. (Abbott et al., The formalin test: scoring properties of the first and second phases of the pain response in rats, Pain 60 (1995) 91-102; Coderre et al., The formalin test: a validation of the weighted-scores method of the behavioral pain rating, Pain 54 (1993) 43-50).) The early phase score is the sum of time spent licking (seconds) from time 0 to 5 min. The late phase score is obtained by adding the total number of seconds spent licking from minute 15 to min. 55 of the observation period. Data are presented as means with standard errors of means (±SEM). Data are evaluated by one-way analysis of variance (ANOVA) and the appropriate contrasts analyzed by Dunnett “t” test for two sided comparisons. […]"}},
  "data": [
    {"smiles": "C[C@@H](c1ccc2[nH]c(=O)sc2c1)c1ccn(-c2ccc(OCCO)cn2)n1", "note": "(single isomer, unassigned) [Example 2]", "values": [
      {"measurement": "IC50", "setting": "[1]", "value": "0.0745 ± 0.0178", "unit": "µM"},
      {"measurement": "inhibition of glutamate plus CTZ activation", "setting": "[1]", "value": "about 85.6±0.7%"},
      {"measurement": "IC50", "setting": "[2]", "value": "> 9.26", "unit": "µM"},
      {"measurement": "IC50", "setting": "[3]", "value": "> 9.26", "unit": "µM"},
      {"measurement": "ED50", "setting": "[4]; Rattus norvegicus, male Sprague Dawley rats, p.o., dose range 1-10 mg/Kg, PTZ 35 mg/kg S.C., read-out: estimated ED50, protection against PTZ induced seizures", "value": 1.74, "unit": "mg/kg"},
      {"measurement": "protection against PTZ induced seizures", "setting": "[4]; rats, 10 mg/Kg p.o.", "value": 100, "unit": "%"},
      {"measurement": "motor impairment as measured by the inverted screen test", "setting": "[5]", "value": "without any observed motor impairment"},
      {"measurement": "ED50", "setting": "[6]; Mus musculus, po, male CD1 mice, p.o., derived from dose responses at 3, 10, 30 mg/kg, read-out: ED50, reduction of pain behavior", "value": 2.61, "unit": "mg/kg"},
      {"measurement": "% reduction in total time licking", "setting": "[6]; 3 mg/kg p.o.", "value": 53.9, "unit": "%"},
      {"measurement": "% reduction in total time licking", "setting": "[6]; 10 mg/kg p.o.", "value": 80.4, "unit": "%"},
      {"measurement": "% reduction in total time licking", "setting": "[6]; 30 mg/kg p.o.", "value": 90.0, "unit": "%"}
    ]}
  ]
}
